In PubChem BioAssay AID2060512 (Molecular Pharmacology Branch, DTP, NCI, 2025):

System: 186277-243-T-J2-PDC complex spheroid viability
Experiment: Anticancer human tumor 186277-243-T-J2-PDC patient-derived colon adenocarcinoma cell line growth inhibition [GQUAD]
Settings: for IC50: curve of first compound; for viability, T/C: stronger effect = lower value; active means viability on the fitted dose curve at most 10% of control; inactive means the rest
How it was run: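 Multi-cell-type spheroids of tumor cells with HUVEC and mesenchymal stem cells, treated with drug combinations. Concentrations descend in half-log steps from near clinical Cmax, or from 10 microM where Cmax is unknown; viability read-out.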

[1] = second compound 0.0316 µM, first compound 0.0316 µM
[2] = second compound 0.0316 µM, first compound 0.316 µM
[3] = second compound 0.1 µM, first compound 0.0316 µM
[4] = second compound 0.1 µM, first compound 0.316 µM
[5] = second compound 0.316 µM, first compound 0.0316 µM
[6] = second compound 0.316 µM, first compound 0.316 µM
[7] = second compound 1 µM, first compound 0.0316 µM
[8] = second compound 1 µM, first compound 0.316 µM
[9] = second compound 3.16 µM, first compound 0.0316 µM
[10] = second compound 3.16 µM, first compound 0.316 µM
[11] = second compound 10 µM, first compound 0.0316 µM
[12] = second compound 10 µM, first compound 0.316 µM
[13] = second compound 0.0316 µM, first compound 0.1 µM
[14] = second compound 0.0316 µM, first compound 1 µM
[15] = second compound 0.0316 µM, first compound 3.16 µM
[16] = second compound 0.0316 µM, first compound 10 µM
[17] = second compound 0.1 µM, first compound 0.1 µM
[18] = second compound 0.1 µM, first compound 1 µM
[19] = second compound 0.1 µM, first compound 3.16 µM
[20] = second compound 0.1 µM, first compound 10 µM
[21] = second compound 0.316 µM, first compound 0.1 µM
[22] = second compound 0.316 µM, first compound 1 µM
[23] = second compound 0.316 µM, first compound 3.16 µM
[24] = second compound 0.316 µM, first compound 10 µM
[25] = second compound 1 µM, first compound 0.1 µM
[26] = second compound 1 µM, first compound 1 µM
[27] = second compound 1 µM, first compound 3.16 µM
[28] = second compound 1 µM, first compound 10 µM
[29] = second compound 3.16 µM, first compound 0.1 µM
[30] = second compound 3.16 µM, first compound 1 µM
[31] = second compound 3.16 µM, first compound 3.16 µM
[32] = second compound 3.16 µM, first compound 10 µM
[33] = second compound 10 µM, first compound 0.1 µM
[34] = second compound 10 µM, first compound 1 µM
[35] = second compound 10 µM, first compound 3.16 µM
[36] = second compound 10 µM, first compound 10 µM
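Further: spheroids exposed to drugs for 7 days.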
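Wherever viability, T/C is given: 100% = DMSO vehicle control viability.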

Cc1[nH]c2ccccc2c1CCNCc1ccc(/C=C/C(=O)NO)cc1 + CN(C)c1ccc(Nc2c3ccc(NC(=O)CCN4CCCC4)cc3nc3cc(NC(=O)CCN4CCCC4)ccc23)cc1
active: viability, T/C [2] 0.65% | viability, T/C [4] 0.86% | viability, T/C [6] 2.93% | viability, T/C [8] 1.2% | viability, T/C [10] 1.46% | viability, T/C [12] 0.74%
55.6 nM: IC50 (second compound 0.1 µM)
58.1 nM: IC50 (second compound 0.0316 µM) | IC50 (second compound 10 µM)
inactive: viability, T/C (second compound 0.0316 µM, first compound 0.000999 µM) 99.5% | viability, T/C (second compound 0.0316 µM, first compound 0.00316 µM) 86.5% | viability, T/C (second compound 0.0316 µM, first compound 0.00999 µM) 96.7% | viability, T/C [1] 92.6% | viability, T/C (second compound 0.0316 µM, first compound 0.0999 µM) 12.1% | viability, T/C (second compound 0.1 µM, first compound 0.000999 µM) 115% | viability, T/C (second compound 0.1 µM, first compound 0.00316 µM) 93.7% | viability, T/C (second compound 0.1 µM, first compound 0.00999 µM) 80.6% | viability, T/C [3] 84.6% | viability, T/C (second compound 0.1 µM, first compound 0.0999 µM) 14.9% | viability, T/C (second compound 0.316 µM, first compound 0.000999 µM) 76.5% | viability, T/C (second compound 0.316 µM, first compound 0.00316 µM) 96.9% | viability, T/C (second compound 0.316 µM, first compound 0.00999 µM) 91.7% | viability, T/C [5] 87.8% | viability, T/C (second compound 0.316 µM, first compound 0.0999 µM) 17.7% | viability, T/C (second compound 1 µM, first compound 0.000999 µM) 86.3% | viability, T/C (second compound 1 µM, first compound 0.00316 µM) 94.6% | viability, T/C (second compound 1 µM, first compound 0.00999 µM) 87.4% | viability, T/C [7] 107% | viability, T/C (second compound 1 µM, first compound 0.0999 µM) 21% | viability, T/C (second compound 3.16 µM, first compound 0.000999 µM) 93% | viability, T/C (second compound 3.16 µM, first compound 0.00316 µM) 93% | viability, T/C (second compound 3.16 µM, first compound 0.00999 µM) 96% | viability, T/C [9] 92% | viability, T/C (second compound 3.16 µM, first compound 0.0999 µM) 13.1% | viability, T/C (second compound 10 µM, first compound 0.000999 µM) 82.8% | viability, T/C (second compound 10 µM, first compound 0.00316 µM) 92.6% | viability, T/C (second compound 10 µM, first compound 0.00999 µM) 97.2% | viability, T/C [11] 96.2% | viability, T/C (second compound 10 µM, first compound 0.0999 µM) 12.4%
63.2 nM: IC50 (second compound 1 µM)
58.3 nM: IC50 (second compound 3.16 µM)
58.8 nM: IC50 (second compound 0.316 µM)

O=C(NO)c1cnc(N2CCN(S(=O)(=O)c3ccc4ccccc4c3)CC2)nc1 + Cc1cnc(CNC(=O)c2c(=O)c3ccc(N4CCCN(C)CC4)nc3n3c2sc2ccccc23)cn1
61.9 nM: IC50 (second compound 0.316 µM)
< 31.6 nM: IC50 (second compound 1 µM) | IC50 (second compound 3.16 µM) | IC50 (second compound 10 µM)
inactive: viability, T/C [1] 96.1% | viability, T/C [13] 71.1% | viability, T/C [3] 66.5% | viability, T/C [17] 50.9% | viability, T/C [5] 64.5% | viability, T/C [21] 39.7% | viability, T/C [7] 40.2% | viability, T/C [25] 34.2% | viability, T/C [8] 8.56% | viability, T/C [9] 33.3% | viability, T/C [29] 24.1% | viability, T/C [11] 34.2% | viability, T/C [33] 19.8%
148 nM: IC50 (second compound 0.0316 µM)
102 nM: IC50 (second compound 0.1 µM)
active: viability, T/C [2] 9.06% | viability, T/C [14] 0.26% | viability, T/C [15] 0.12% | viability, T/C [16] 0.12% | viability, T/C [4] 9.09% | viability, T/C [18] 0.28% | viability, T/C [19] 0.09% | viability, T/C [20] 0.1% | viability, T/C [6] 8.31% | viability, T/C [22] 0.44% | viability, T/C [23] 0.08% | viability, T/C [24] 0.1% | viability, T/C [26] 0.11% | viability, T/C [27] 0.08% | viability, T/C [28] 0.1% | viability, T/C [10] 0.15% | viability, T/C [30] 0.1% | viability, T/C [31] 0.1% | viability, T/C [32] 0.12% | viability, T/C [12] 0.24% | viability, T/C [34] 0.14% | viability, T/C [35] 0.16% | viability, T/C [36] 0.18%

O=C(c1cc(Cc2n[nH]c(=O)c3ccccc23)ccc1F)N1CCN(C(=O)C2CC2)CC1 + CN(C)c1ccc(Nc2c3ccc(NC(=O)CCN4CCCC4)cc3nc3cc(NC(=O)CCN4CCCC4)ccc23)cc1
> 10000 nM: IC50 (second compound 0.0316 µM) | IC50 (second compound 0.1 µM) | IC50 (second compound 0.316 µM) | IC50 (second compound 1 µM) | IC50 (second compound 3.16 µM) | IC50 (second compound 10 µM)
inactive: viability, T/C [1] 116% | viability, T/C [13] 122% | viability, T/C [2] 115% | viability, T/C [14] 93.5% | viability, T/C [15] 81.8% | viability, T/C [16] 70.2% | viability, T/C [3] 117% | viability, T/C [17] 118% | viability, T/C [4] 115% | viability, T/C [18] 99% | viability, T/C [19] 103% | viability, T/C [20] 53.5% | viability, T/C [5] 97.7% | viability, T/C [21] 111% | viability, T/C [6] 102% | viability, T/C [22] 95.1% | viability, T/C [23] 111% | viability, T/C [24] 63.4% | viability, T/C [7] 98.2% | viability, T/C [25] 100% | viability, T/C [8] 105% | viability, T/C [26] 110% | viability, T/C [27] 89.9% | viability, T/C [28] 75.9% | viability, T/C [9] 90.4% | viability, T/C [29] 109% | viability, T/C [10] 95.3% | viability, T/C [30] 100% | viability, T/C [31] 78.7% | viability, T/C [32] 64.5% | viability, T/C [11] 105% | viability, T/C [33] 116% | viability, T/C [12] 120% | viability, T/C [34] 111% | viability, T/C [35] 95.9% | viability, T/C [36] 54.9%
